Assay [1] addresses human Melanocortin-4 receptor (MC4R) (Homo sapiens (Human), UniProt P32245). As to the kind of experiment: Functional in vitro MC4R antagonist potency assay (intracellular cAMP, HTRF, CHO cells). The format is cell-based. The following applies: cAMP after EC80 agonist stimulation (200 nM αMSH); Kb from IC50 by Leff-Dougall equation; read-out: Kb (nM) Antagonist geometric mean. Here is the method:
The functional in vitro antagonist potency for test compounds was determined by monitoring intracellular cyclic adenosine monophosphate (cAMP) levels in Chinese hamster ovary (CHO—) cells stably expressing the human Melanocortin-4 receptor (MC4R). Following agonist activation, human MC4R associates with the G-protein complex causing the Ga subunit to exchange bound GDP for GTP, followed by dissociation of the Gα-GTP complex. The activated Ga subunit can couple to downstream effectors to regulate the levels of second messengers or cAMP within the cell. Thereby, determination of intracellular cAMP levels allows for pharmacological characterization. Intracellular cAMP levels are quantitated using a homogenous assay utilizing the Homogeneous Time-Resolved Fluorescence (HTRF) technology from CisBio. The method is a competitive immunoassay between native cAMP produced by cells and the cAMP labelled with the acceptor dye, d2. The two entities then compete for binding to a monoclonal anti-cAMP antibody labeled with cryptate. The specific signal is inversely proportional to the concentration of cAMP in the cells.
Test compounds were solubilized to 30 mM in 100% dimethyl sulfoxide (DMSO) and stored. An 11-point dilution series using 1 in 3 162-fold serial dilutions was created in 100% DMSO with a top concentration of 800 μM. The serially diluted compound was spotted into a 384-well plate (Greiner, Cat No. 781280) at 40 nL/well with duplicate points at each concentration, and then diluted 1 in 1000 with 40 μL assay buffer containing HBSS, 20 mM HEPES (Invitrogen), 0.1% BSA, and 250 μM IBMX (Sigma Aldrich) to create an intermediate plate at 2× final assay concentration (FAC). The final compound concentration range in the assay was 400 nM to […], with a final DMSO concentration of 0.1%.
In-house generated CHO cells stably expressing the Gs-coupled human MC4R receptor were plated in 384-well assay plates (Corning, Cat No. 3570) in 50 μL/well of Ham's F-12 containing 10% heat inactivated FBS, 1× penicillin/streptomycin, 1 mM Glutamax (Invitrogen) at a density of 2,500 cells per well and incubated at 37° C. (95% O2: 5% CO2) overnight, with micro-clime lids (Labcyte, Cat No. LLS-0310). On day of assay, media was removed from the assay plate through gentle flicking and blotting plate on a paper towel and replaced with 5 μL of 2× antagonist compound in assay buffer (HBSS, 20 mM HEPES, 0.1% BSA, 250 μM IBMX) and 0.1% DMSO. Cells were incubated with compound for 30 minutes at 37° C. (95% O2: 5% CO2) before addition of 5 μL EC80 agonist stimulation (200 nM α-melanocyte stimulating hormone, αMSH, Bachem) and another 30-minute incubation at 37° C. (95% O2: 5% CO2). Intracellular cAMP levels were quantified as per Cisbio's protocol (5 μL of D2 and then 5 μL Cryptate, incubated for 1-2 hours at room temperature). Samples were measured on an Envision plate reader (PerkinElmer Life and Analytical Sciences; excitation, 320 nm; emission, 665 nm/620 nm).
Data were analyzed using the ratio of fluorescence intensity at 620 and 665 nm for each well, extrapolated from the cAMP standard curve to express data as nM cAMP for each well. Data expressed as nM cAMP were then normalized to control wells using Activity Base (IDBS). Zero percent effect (ZPE) was defined as nM of cAMP generated from EC80 agonist stimulation (200 nM αMSH). In the absence of an antagonist control compound, one hundred percent effect (HPE) was defined as nM of cAMP generated from assay buffer/vehicle only.
(In general: In TR-FRET formats the signal depends on donor and acceptor labels being close together.)

The next assay concerns the target hMC4R (Homo sapiens (Human), UniProt P32245). As to the kind of experiment: In vitro binding affinity assay using hMC4R (radioligand competition binding, CHO cell membranes). The note with it: competition with [125I]-(Nle4, D-Phe7)-α-MSH 0.5 nM; Ki from IC50 by Cheng-Prusoff; read-out: Ki (nM) geometric mean. The procedure:
The binding affinity of test compounds at the α-melanocyte-stimulating hormone receptor (hMC4R) was assessed using a radioligand competition binding assay. Recombinant Chinese hamster ovaries (CHO) cells stably expressing hMC4R (PerkinElmer #ES-191-C) were used for competitive binding. hMC4R membranes were grown in Dulbecco's Modified Essential Medium and Ham's F-12 Medium (DMEM/F12), 10% heat inactivated fetal bovine serum (FBS), 0.4 mg/mL Geneticin and 2 mM L-glutamine. Cell membranes were bulked and frozen until the assay was performed.
Compounds were solubilized in 100% dimethyl sulfoxide (DMSO) to a concentration of 30 mM. A 10-point intermediate dilution series using half log dilutions was created in 100% DMSO with a top concentration of 0.03 mM. The serially diluted compounds were spotted as 1 μL/well, in 96-well Costar 3363 plates. The final compound range in the assay was 300 nM to 0.01 nM with a final DMSO concentration of 1%. Control wells, containing 1 μL of 2 mM ([…]) alpha-melanocyte stimulating hormone (α-MSH-Tocris #2584) was added to the non-specific binding wells and 1 μL 100% DMSO for the total binding control wells. This was followed by the addition of 80 μL of assay buffer [25 mM HEPES, 5 mM MgCl2, 2.5 mM CaCl2, 150 mM NaCl, Complete EDTA-free Protease Inhibitor Tablet (Thermo Scientific #11873580001) and 0.25% BSA]. […] The exact concentration of radioligand used for each experiment was determined by liquid scintillation counting and adjusted if necessary.
Frozen hMC4R cell membranes were thawed and Dounce homogenized. Homogenates were resuspended in assay buffer to a concentration of 2 μg per well. […] The plates were incubated for 2 hours at room temperature. Assay samples were then rapidly filtered through Unifilter-96 GF/B PEI coated filter plates using a filter plate harvester (PerkinElmer) and rinsed with ice-cold wash buffer [25 mM (4-(2-hydroxyethyl)-1-piperazineethanesulfonic acid (HEPES), 1 mM MgCl2, 2.5 mM CaCl2, and 500 mM NaCl]. Filter plates were dried overnight at room temperature. Plates were then bottom-sealed prior to the addition of 50 μL/well Ultima Gold XR scintillation fluid (PerkinElmer 6013111). Plates were then top-sealed, incubated for 60 minutes at room temperature and then the amount of radioactivity present was determined by liquid scintillation counting on a Microbeta Trilux (PerkinElmer #2450-0060).
The raw data (expressed as counts per minute) were analyzed using ActivityBase (IDBS Data Management Software). […] Equilibrium dissociation constant for inhibitor of ligand and receptor interaction (Ki) values were then calculated from the IC50 values using the Cheng-Prusoff equation: Ki=IC50/(1+([L]/Kd)), where [L] is the concentration of the radioligand used in the experiment and Kd is the affinity of the radioligand (determined in separate saturation experiments).
(In general: Displacement assays read how much labelled ligand stays bound in the presence of the test substance.)

Chain of human Melanocortin-4 receptor (MC4R) (P32245 whole entry): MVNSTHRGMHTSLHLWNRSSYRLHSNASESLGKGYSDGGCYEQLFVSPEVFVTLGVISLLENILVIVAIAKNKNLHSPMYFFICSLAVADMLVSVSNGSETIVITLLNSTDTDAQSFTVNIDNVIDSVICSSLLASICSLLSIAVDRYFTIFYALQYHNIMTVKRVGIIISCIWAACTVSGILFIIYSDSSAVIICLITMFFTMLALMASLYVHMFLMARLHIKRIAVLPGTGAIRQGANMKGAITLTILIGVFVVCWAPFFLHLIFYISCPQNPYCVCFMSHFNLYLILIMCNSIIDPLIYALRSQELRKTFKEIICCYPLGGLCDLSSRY
Chain of hMC4R (P32245 whole entry): as above

Regarding `COc1ccc(C)c([C@@H](C)C(=O)N2CC[C@H](Nc3ccc(-c4cn(C)cn4)c(C)n3)C2)c1` (single isomer, unassigned) [Example 20B], the Kb in assay [1] came out at 2.9 nM. At hMC4R, the Ki came to 0.23 nM.
The corresponding values for `COc1cc([C@@H](C)C(=O)N2CC[C@H](Nc3ccc(-c4nc(C(C)(F)F)n(C)n4)c(C)n3)C2)c(F)cn1` [Example 4, (2R)-1-[(3S)-3-({5-[5-(1,1-difluoroethyl)-1-methyl-1H-1,2,4-triazol-3-yl]-6-methylpyridin-2-yl}amino)pyrrolidin-1-yl]-2-(5-fluoro-2-methoxypyridin-4-yl)propan-1-one] are 9.6 nM and 1 nM.
As for `COc1cc([C@@H](C)C(=O)N2CC[C@H](Nc3ccc(-c4nc(C(F)(F)F)n(C)n4)c(C)n3)C2)c(F)cn1` [Example 2, (2R)-2-(5-fluoro-2-methoxypyridin-4-yl)-1-[(3S)-3-({6-methyl-5-[1-methyl-5-(trifluoromethyl)-1H-1,2,4-triazol-3-yl]pyridin-2-yl}amino)pyrrolidin-1-yl]propan-1-one], the Kb in assay [1] was 7.2 nM. Moreover, the Ki at hMC4R came out at 1.2 nM.
For the molecule `COc1cc([C@@H](C)C(=O)N2CC[C@H](Nc3ccc(-c4ncccn4)c(C)n3)C2)c(C)cn1` (single isomer, unassigned) [Example 22A], the antagonist dissociation constant (Kb) in assay [1] is greater than 110 nM. Moreover, the Ki at hMC4R came out at 120 nM.
`COc1cc([C@@H](C)C(=O)N2CC[C@H](Nc3ccc(-c4nnn(C)n4)c(C)n3)C2)c(Cl)cn1` [Example 1, (2R)-2-(5-chloro-2-methoxypyridin-4-yl)-1-[(3S)-3-{[6-methyl-5-(2-methyl-2H-tetrazol-5-yl)pyridin-2-yl]amino}pyrrolidin-1-yl]propan-1-one]: in assay [1], the Kb worked out at 5.1 nM. In addition, the Ki at hMC4R was determined as 0.88 nM.
The corresponding values for `COc1cc([C@@H](C)C(=O)N2CC[C@H](Nc3ccc(-c4ncccn4)c(C)n3)C2)cc(OC(F)F)n1` (single isomer, unassigned) [Example 30A] are greater than 62 nM and greater than 200 nM.
The corresponding values for `COc1cc([C@@H](C)C(=O)N2CC[C@H](Nc3ccc(-c4cn(C)c(C(C)(F)F)n4)c(C)n3)C2)c(F)cn1` (single isomer, unassigned) [Example 21B] are 2.6 nM and 0.48 nM.
Turning to `COc1cc([C@@H](C)C(=O)N2CC[C@H](Nc3ccc(-c4nnn(C)n4)c(C)n3)C2)c(C)cn1` (single isomer, unassigned) [Example 26A], the Kb in assay [1] was greater than 150 nM. Also, the Ki at hMC4R is greater than 170 nM.
Turning to `COc1cc([C@@H](C)C(=O)N2CC[C@H](Nc3ccc(-c4nc(C(F)F)n(C)n4)c(C)n3)C2)ccn1` (single isomer, unassigned) [Example 33B], in assay [1], the antagonist equilibrium constant (Kb) was determined as 3.3 nM. On hMC4R, the Ki was 1.1 nM.
The matching figures for `COc1cc(OC(F)F)cc([C@@H](C)C(=O)N2CC[C@H](Nc3ccc(-c4ncccn4)c(C)n3)C2)c1` (single isomer, unassigned) [Example 44A]: greater than 97 nM and greater than 220 nM.
Consider `COc1cc([C@@H](C)C(=O)N2CC[C@H](Nc3ccc(-c4ncccn4)c(C)n3)C2)c(Cl)cn1` [Example 6, (2R)-2-(5-chloro-2-methoxypyridin-4-yl)-1-[(3S)-3-{[6-methyl-5-(pyrimidin-2-yl)pyridin-2-yl]amino}pyrrolidin-1-yl]propan-1-one], for which the antagonist equilibrium constant (Kb) in assay [1] is 2.2 nM. On hMC4R, the Ki was 1.1 nM.
With `COc1cc(OC(F)F)cc([C@@H](C)C(=O)N2CC[C@H](Nc3ccc(-c4ncccn4)c(C)n3)C2)c1` (single isomer, unassigned) [Example 44B], the Kb in assay [1] was 4.1 nM. Besides, on hMC4R, the inhibitory constant (Ki) stood at 0.77 nM.
The matching figures for `Cc1nc(N[C@H]2CCN(C(=O)Cc3ccc(F)cc3)C2(C)C)ccc1-c1cn(C)cn1` [Example 3B, 1-[(3S)-2,2-dimethyl-3-{[6-methyl-5-(1-methyl-1H-imidazol-4-yl)pyridin-2-yl]amino}pyrrolidin-1-yl]-2-(4-fluorophenyl)ethan-1-one]: 33 nM and 4.2 nM.
The corresponding values for `COc1cc([C@@H](C)C(=O)N2CC[C@H](Nc3ccc(-c4nnn(C)n4)c(C)n3)C2)c(F)cn1` [Example 5, (2R)-2-(5-fluoro-2-methoxypyridin-4-yl)-1-[(3S)-3-{[6-methyl-5-(2-methyl-2H-tetrazol-5-yl)pyridin-2-yl]amino}pyrrolidin-1-yl]propan-1-one] are 17 nM and 2.6 nM.
The corresponding values for `COc1cc([C@@H](C)C(=O)N2CC[C@H](Nc3ccc(-c4cn(C)c(C(F)F)n4)c(C)n3)C2)c(F)cn1` (single isomer, unassigned) [Example 38B] are 3.2 nM and 0.31 nM.
For the molecule `[2H]C([2H])([2H])n1nc(-c2ccc(N[C@H]3CCN(C(=O)[C@H](C)c4cc(OC)ncc4F)C3)nc2C)nc1C(F)(F)F` [Example 42, (2R)-2-(5-fluoro-2-methoxypyridin-4-yl)-1-[(3S)-3-({6-methyl-5-[1-(^2H3)methyl-5-(trifluoromethyl)-1H-1,2,4-triazol-3-yl]pyridin-2-yl}amino)pyrrolidin-1-yl]propan-1-one], the Kb in assay [1] is 5.4 nM. Further, the Ki on hMC4R was determined as 1.3 nM.
The matching figures for `COc1cc([C@@H](C)C(=O)N2CC[C@H](Nc3ccc(-c4nc(C(F)F)n(C)n4)c(C)n3)C2)c(Cl)cn1` (single isomer, unassigned) [Example 24B]: 0.96 nM and 0.49 nM.
The matching figures for `COc1cc([C@@H](C)C(=O)N2CC[C@H](Nc3ccc(-c4nc(C(F)(F)F)n(C)n4)c(C)n3)C2)c(Cl)cn1` (single isomer, unassigned) [Example 25B]: 1.8 nM and 0.49 nM.

By Kb is commonly meant the affinity of an antagonist, worked out from how it opposes an agonist. As a reminder, the Ki is a measure of affinity in units of concentration, obtained from inhibition or displacement.
